Patent US20080187608A1, “ENRICHED FRACTIONS FROM CLARY SAGE FOR THE TREATMENT OF CANCER, CARDIOVASCULAR AND INFLAMMATORY DISEASES” (SAVIPU PHARMACEUTICALS, priority 2007, published 2008)

Tests used:
[1] = tested on: NAD[P]H:(quinone-acceptor) oxidoreductase (QR) in mouse hepatoma Hepa 1c1c7 cells; test: Activation of quinone reductase (QR) in Hepa 1c1c7 cells, menadione-coupled tetrazolium reduction; assay type: cell-based
Procedure: Activation of Quinone reductase (NAD[P]H:(quinone-acceptor) oxidoreductase (QR). We studied the effects of SP001P and SP 2010 on the activation of QR, a phase 2 enzyme in mouse hepatoma cells Hepa 1c1c7 (ATCC) at lower concentrations. QR protects cells against quinones and highly reactive semiquinones by catalyzing an obligate two-electron reduction of quinones to hydroquinones. We have developed a 96-well plate assay to assess QR activity in these cell lines. QR activity was measured by a menadione-coupled reduction of tetrazolium dye as modified from Prochaska and Santamari. Cells (10^4 per well) were grown for 24 h and then exposed to serial dilutions of inducers for 24 h. Protein concentrations in a corresponding plate were determined by methylene blue staining as described earlier. SP001P and SP 2010 stimulated NAD[P]H:(quinone-acceptor) oxidoreductase (QR), a phase 2 enzyme in a dose dependent manner in mouse hepatoma Hepa 1c1c7 cells at concentrations known to inhibit B[a]P-induced transformation of RTE cells, (FIG. 2). The concentration required to double the specific activity of QR (CD value) for SP001P and SP 2010 were 24 ng/ml and 49 nM, respectively.

[2] = tested on: NFκB transcription factor in A549/NFκB-luc reporter cell line; test: NF-κB transactivation after rhTNFα in A549/NFκB-luc reporter cell line; assay type: cell-based; conditions: rhTNFα activation
Text: (§1) Inhibition of activation of NF-kB by SP001P and SP 2010. We evaluated the effects of SP001P and SP 2010 on the activity of NFκB transcription factor after activation with rhTNFα in a reporter cell line A549/NFκB-luc designed by Panomics according to the manufacturer's instructions. […] It is interesting to note that although SP001P has only 20% of SP 2010 yet it produced a dose response curve that was very similar with SP 2010 (FIG. 4A). […] We studied the effects of SP 2010 on TNF-α-dependent activation of NF-κB binding to KB site in nuclear extracts of HeLa cells. To measure the binding of the activated NF-κB to its consensus KB sequence, nuclear extracts from HeLa cells treated with SP 2010 and stimulated with TNFα were prepared by the Panomics Nuclear Extraction kit. Nuclear extracts were diluted to 2 μg/μl and 10 μl of the extract was used to quantify transcription factor activation, specifically that of NF-κB p50 (ELISA, Panomics).

[3] = tested on: NF-κB p50 binding to KB site in HeLa cells; test: TNF-α-dependent NF-κB binding to κB site in nuclear extracts of HeLa cells (NF-κB p50 ELISA); assay type: cell-based; conditions: HeLa cells stimulated with TNFα
Text: as §1

[4] = Oxygen Radical Absorbance Capacity (ORAC) assay
Text: Antioxidant Capability of SP001P and SP 2010. The Oxygen Radical Absorbance Capacity (ORAC) assay depends on the free radical damage to a fluorescent probe, such as fluorescein, to result in a downward change of fluorescent intensity. The presence of antioxidants results in an inhibition in the free radical damage to the fluorescent compound. Reactions containing antioxidants and blanks (solvent) are run in parallel using equivalent amounts of a ROS generator and fluorescent probe. The area under the curve (AUC) from the experimental sample is calculated. Results from different samples are compared with Trolox®, (6-hydroxy-2,5,7,8-tetrametmethylchroman-2-carboxylic acid) a water soluble vitamin E analog and ORAC results are expressed as Trolox® equivalents. ORAC values are calculated using the regression equation between Trolox concentration and the net AUC and are expressed as micromole Trolox equivalents per gram of sample. SP001P and SP 2010 are potent antioxidants with values of 357 and 441 micromole Trolox equivalents per gram, respectively.

## Cc1coc2c1C(=O)C(=O)c1c-2ccc2c1CCCC2(C)C [SP 2010, Tanshinone IIA]
[1]; 24 h exposure
  concentration required to double the specific activity of QR (CD value): 49 nM
[1]; FIG. 2
  stimulation of QR: stimulated
[2]
  transactivation of NF-κB: dose-dependent decrease
[3]
  NF-κB binding to KB site: dose-dependent decrease
[4]
  ORAC value: 441 micromole Trolox equivalents per gram
